Results taken from ChEMBL document CHEMBL5113491, “Discovery of N-benzylarylamide derivatives as novel tubulin polymerization inhibitors capable of activating the Hippo pathway” (Eur J Med Chem, 2022).
Active and inactive are the calls of the source. The rule behind the calls is not given here.

How the values were obtained:
NCI-H520 = experiment: Antiproliferative activity against human NCI-H520 cells assessed as inhibition of cell growth measured after 48 hrs by MTT assay; type: functional, cell-based; conditions: NCI-H520, 48 h
[1] = Cytotoxicity against human HUVEC cells assessed as reduction in cell viability measured after 48 hrs by MTT assay; type: toxicity, cell-based
SGC-7901 [2] = experiment: Activation of LATS in human SGC-7901 cells assessed as increase in LATS phosphorylation measured after 48 hrs by Western blot analysis; type: cell-based; conditions: filed as activator, dose 15-45 nmol/L, DDE = dose-dependent effect
MGC-803 [3] = experiment: Downregulation of Axl protein expression in human MGC-803 cells at 15 to 45 nmol/L measured after 48 hrs by Western blot analysis; type: functional, cell-based; conditions: dose 15-45 nmol/L
SGC-7901 [4] = experiment: Induction of G2/M phase cell cycle arrest in human SGC-7901 cells assessed as decrease in cyclin A2 expression at 15 to 45 nmol/L measured after 48 hrs by Western blot analysis; type: functional, cell-based; conditions: dose 15-45 nmol/L
MGC-803 [5] = experiment: Induction of G2/M phase cell cycle arrest in human MGC-803 cells assessed as decrease in p-cdc2 (T161) expression at 15 to 45 nmol/L measured after 48 hrs by Western blot analysis; type: functional, cell-based; conditions: dose 15-45 nmol/L
SGC-7901 [6] = experiment: Induction of G2/M phase cell cycle arrest in human SGC-7901 cells assessed as increase in p-Histone H3 expression at 15 to 45 nmol/L measured after 48 hrs by Western blot analysis; type: functional, cell-based; conditions: dose 15-45 nmol/L
MGC-803 [7] = experiment: Induction of cell apoptosis in human MGC-803 cells assessed as increase in apoptotic cells measured after 48 hrs by Annexin V/PI staining based flow cytometric analysis; type: functional; conditions: dose 15-45 nmol/L, DDE = dose-dependent effect
[8] = Induction of cell apoptosis in human SGC-7901 cells assessed as increase in apoptotic cells at 45 nmol/L measured after 48 hrs by Annexin V/PI staining based flow cytometric analysis (reference value: 9.28%); type: functional
SGC-7901 [9] = experiment: Induction of morphological changes in human SGC-7901 cells assessed as change in concentration of nuclei at 15 to 45 nmol/L measured after 48 hrs by calcein-AM/PI staining based microscopic analysis; type: functional, cell-based; conditions: dose 15-45 nmol/L

C/C=C/C(=O)N(Cc1ccc(OC)c(O)c1)c1cc(OC)c(OC)c(OC)c1
IC50 (NCI-H520): 0.052 µM
IC50 at 48 h [1]: 48.5 µM
Activity (SGC-7901 [2]): Dde
Activity (MGC-803 [3]): Active
Activity (SGC-7901 [4]): Active
Activity (MGC-803 [5]): Active
Activity (SGC-7901 [6]): Active
Activity (MGC-803 [7]): Dde
Activity [8]: 63.51%
Activity (SGC-7901 [9]): Active
